Data on 18 compounds can be found in US20240262842A1, “SMALL MOLECULE INHIBITORS OF KRAS G12C MUTANT” (Merck Sharp & Dohme LLC, priority 2021, published 2024).

In experiment [1] the target is T1, interaction between GMPPNP-bound recombinant K-Ras4B G12C mutant protein and cRAF RAS-binding domain (cRAF-RBD) (Homo sapiens, UniProt P01116, G12C).
T1 construct: His-tag (N)
Kind of experiment: Inhibitory activity on interaction between KRAS G12C and cRAF (Alpha technology). The method in brief:
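His-tagged K-Ras4B G12C (aa 1-169), GMPPNP-loaded, preincubated with compound 1 h at 25° C in pH 7.5 Tris buffer with MgCl2, TCEP, Tween 20. cRAF-RBD (aa 50-132) and Alpha reagents then added for 1.5 h; Alpha signal normalised to DMSO (0%) and GDP-bound KRAS (100%); IC50 from dose titration.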

The next experiment concerns MIA PaCa-2 cells. Kind of experiment: Growth inhibition activity on KRAS-G12C mutant cell line (CellTiter-Glo 3D). To be noted: MIA PaCa-2, 3-day culture with compound. In kind it is cell-based, human. The method in brief:
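MIA PaCa-2 cells in RPMI1640 with 10% FBS, U-bottom wells, cultured 1 day before compound (0.2% DMSO final), then 3 days at 37 °C, 5% CO2. Viability by CellTiter-Glo 3D luminescence; growth inhibition versus untreated wells gives IC50 (nM).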

The mark [2] stands for this setting: GMPPNP-bound KRAS G12C incubated with compound 25° C. 1 hour, Table 2-1, read-out: IC50.
Where [3] appears, read: Homo sapiens, MIA PaCa-2, 72 h, Table 3-1.
The mark [4] stands for this setting: IC50, GMPPNP-bound KRAS G12C incubated with compound 25° C. 1 hour, Table 2.
Setting [5] is: GMPPNP-bound KRAS G12C incubated with compound 25° C. 1 hour, Table 2, read-out: IC50.
Setting [6] is: Homo sapiens, MIA PaCa-2, 72 h, Table 3.
[7] abbreviates: IC50, GMPPNP-bound KRAS G12C incubated with compound 25° C. 1 hour, Table 2-1.

pIC50: −log10 of the molar value. Where two headings read alike, the source gives them in different places.

T1 sequence (P01116 with tags, fused parts or gaps isoform P01116-2 G12C): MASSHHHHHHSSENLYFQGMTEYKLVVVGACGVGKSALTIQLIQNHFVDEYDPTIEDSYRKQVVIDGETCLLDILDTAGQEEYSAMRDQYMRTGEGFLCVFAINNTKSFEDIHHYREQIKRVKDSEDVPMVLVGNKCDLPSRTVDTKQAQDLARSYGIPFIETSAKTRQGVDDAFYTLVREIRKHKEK

A word on the pIC50: it is −log10 of the IC50, conventionally taken in molar units. As to `CN1CCc2cc(C(=O)c3cc(F)c(NC(=O)/C=C/CN4CC[C@H]4C(C)(C)O)c(F)c3)n3cccc(c23)-c2c(C(F)(F)F)cc3c(ncn3C)c21` (single isomer, unassigned) [Example 180], the negative logarithm of the IC50 (pIC50) in experiment [1] (setting [2]) is 7.31; with MIA PaCa-2 cells (setting [3]) it was 7.90.

`CO[C@H]1CC[C@H](NC/C=C/C(=O)Nc2c(F)cc(C(=O)c3cn4c5c(cccc35)-c3c(C(F)(F)F)cc5c(nc(C)n5C)c3OCC4)cc2F)CC1` (single isomer, unassigned) [Example 12-2, (E)-N-(4-(8,9-dimethyl-6-(trifluoromethyl)-12,13-dihydro-8H-imidazo[4″,5″:3′,4′]benzol[1′,2′:7,8][1,4]oxazocino[6,5,4-hi]indole-2-carbonyl)-2,6-difluorophenyl)-4-(((1r,4r)-4-methoxycyclohexyl)amino)but-2-enamide]: the negative-log IC50 (pIC50) in experiment [1] (setting [4]) is < 5.17; with MIA PaCa-2 cells (Table 3), 5.80.

As to `COC[C@H](CO)NC/C=C/C(=O)Nc1c(F)cc(C(=O)c2cc3c4c(cccn24)-c2c(C(F)(F)F)cc4c(ncn4C)c2N(C)CC3)cc1F` [Example 128, (S,E)-N-(4-(9,12-dimeth-yl-7-(trifluoromethyl)-9,12,13,14-tetrahydro-imidazo[4″,5″:5′,6′]benzo-[1′,2′:2,3]azocino[4,5,6-hi]indolizine-2-carbonyl)-2,6-difluorophenyl)-4-((1-hydroxy-3-methoxy-propan-2-yl)amino)but-2-enamide], the negative-log IC50 (pIC50) in experiment [1] (setting [2]) is 7.73; with MIA PaCa-2 cells (setting [3]) it was 7.93.

For the compound `Cn1cnc2c3c(c(C(F)(F)F)cc21)-c1cccn2c(C(=O)c4cc(F)c(NC(=O)/C=C/CN5CC[C@H]6CC[C@@H](O)[C@H]65)c(F)c4)cc(c12)CCO3` (racemic) [Example 164], the negative logarithm of the IC50 (pIC50) in experiment [1] (setting [2]) was 7.67; in the experiment on MIA PaCa-2 cells (setting [3]), 7.86.

`COc1cc2c(ncn2C)c2c1-c1cccn3c(C(=O)c4cc(F)c(NC(=O)/C=C/CN[C@H]5CCOC5)c(F)c4)cc(c13)CCN2C` (single isomer, unassigned) [Example 159]: the negative logarithm of the IC50 (pIC50) in experiment [1] (setting [2]) was 8.14; in the experiment with MIA PaCa-2 cells (setting [3]), 8.09.

For the compound `Cc1nc2c3c(c(C(F)(F)F)cc2n1C)-c1cccn2c(C(=O)c4cc(F)c(NC(=O)/C=C/CNC5(C)CCOC5)c(F)c4)cc(c12)CCO3` (stereo not drawn) [Example 41], the pIC50 in experiment [1] (setting [5]) was 8.00; in the experiment with MIA PaCa-2 cells (setting [6]), 8.40.

In the case of `COCc1nc2c3c(c(C(F)(F)F)cc2n1C)-c1cccn2c(C(=O)c4cc(F)c(NC(=O)/C=C/CN[C@H]5CCOC5)c(F)c4)cc(c12)C(=O)N(C)C3` [Example 158, (S,E)-N-(2,6-difluoro-4-(10-(methoxymethyl)-9,13-dimethyl-14-oxo-7-(trifluoromethyl)-9,12,13,14-tetrahydroimidazo[4″,5″:3′,4′]benzo[1′,2′:6,7]azocino[5,4,3-hi]indolizine-2-carbonyl)phenyl)-4-((tetrahydrofuran-3-yl)amino)but-2-enamide], the pIC50 in experiment [1] (setting [2]) was 7.11; with MIA PaCa-2 cells (setting [3]) it was 7.02.

As to `Cc1cc2c(nc(C)n2C)c2c1-c1cccc3c(C(=O)c4cc(F)c(NC(=O)/C=C/CNC56CCC(CC5)OC6)c(F)c4)cn(c13)CCN2C` [Example 119, (E)-4-((2-oxabicyclo-[2.2.2]octan-4-yl)amino)-N-(2,6-difluoro-4-(6,8,9,11-tetramethyl-8,11,12,13-tetrahydro-imidazo[4″,5″:5′,6′]benzo-[1′,2′:5,6][1,4]diazocino-[7,8,1-hi]indole-2-carbon-yl)phenyl)but-2-enamide], the negative-log IC50 (pIC50) is 7.77 in experiment [1] (setting [7]) and 8.03 in the experiment on MIA PaCa-2 cells (Table 3-1).

As for `CO[C@H]1CC[C@H](NC/C=C/C(=O)Nc2c(F)cc(C(=O)c3cn4c5c(cccc35)-c3c(C(F)(F)F)cc5c(nc(C)n5C)c3OCC4)cc2F)CC1` (single isomer, unassigned) [Example 12-1, (E)-N-(4-(8,9-dimethyl-6-(trifluoromethyl)-12,13-dihydro-8H-imidazo[4″,5″:3′,4′]benzol[1′,2′:7,8][1,4]oxazocino[6,5,4-hi]indole-2-carbonyl)-2,6-difluorophenyl)-4-(((1r,4r)-4-methoxycyclohexyl)amino)but-2-enamide], the negative-log IC50 (pIC50) was 8.30 in experiment [1] (setting [4]) and 9.00 in the experiment on MIA PaCa-2 cells (Table 3).

As for `Cc1cnc2c3c(c(C(F)(F)F)cn12)-c1cccn2c(C(=O)c4cc(F)c(NC(=O)/C=C/CNC5(C)COC5)c(F)c4)cc(c12)CCN3C` [Example 187, (E)-N-(4-(10,13-dimethyl-7-(trifluoromethyl)-14,15-dihydro-13H-imidazo[1″,2″:1′,2′]pyrido[3′,4′:2,3]azocino[4,5,6-hi]indolizine-2-carbonyl)-2,6-difluorophenyl)-4-((3-methyloxetan-3-yl)amino)but-2-enamide], the pIC50 is 7.44 in experiment [1] (setting [2]) and 7.41 with MIA PaCa-2 cells (setting [3]).

As for `Cc1nc2c3c(c(C(F)(F)F)cc2n1C)-c1cccn2c(C(=O)c4cc(F)c(NC(=O)/C=C/CNC5(C)COC5)c(F)c4)cc(c12)CCN3C` (single isomer, unassigned) [Example 71, (E)-N-(2,6-difluoro-4-(9,10,12-trimethyl-7-(trifluoromethyl)-9,12,13,14-tetrahydroimidazo[4″,5″:5′,6′]benzo[1′,2′:2,3]azocino[4,5,6-hi]indolizine-2-carbonyl)phenyl)-4-((3-methyloxetan-3-yl)amino)but-2-enamide], the values for the pIC50 (in experiment [1] (setting [2]); in the experiment with MIA PaCa-2 cells (setting [3])) were 7.69 and 8.02, respectively.

Turning to `CC1Cc2cc(C(=O)c3cc(F)c(NC(=O)/C=C/CNC4(C)COC4)c(F)c3)n3cccc(c23)-c2c(C(F)(F)F)cc3c(ncn3C)c2O1` (single isomer, unassigned) [Example 130-2, (E)-N-(4-(9,13-dimethyl-7-(trifluoromethyl)-13,14-dihydro-9H-imidazo[4″,5″:5′,6′]benzo[1′,2′:2,3]oxocino[4,5,6-hi]indolizine-2-carbonyl)-2,6-difluorophenyl)-4-((3-methyloxetan-3-yl)amino)but-2-enamide], the pIC50 in experiment [1] (setting [2]) is 5.42; in the experiment with MIA PaCa-2 cells (Table 3-1) it was 5.47.

Consider `Cn1cnc2c3c(c(C(F)(F)F)cc21)-c1cccn2c(C(=O)c4cc(F)c(NC(=O)/C=C/CN5CC[C@H]5CO)c(F)c4)cc(c12)CCO3` [Example 165, (S,E)-N-(2,6-difluoro-4-(9-methyl-7-(trifluoro-methyl)-13,14-dihydro-9H-imidazo[4″,5″:5′,6′]-benzo[1′,2′:2,3]oxocino-[4,5,6-hi]indolizine-2-carbonyl)phenyl)-4-(2-(hydroxymethyl)azetidin-1-yl)but-2-enamide], for which the pIC50 in experiment [1] (setting [2]) was 8.43; with MIA PaCa-2 cells (setting [3]) it was 8.26.

On to `COCc1nc2c3c(c(C(F)(F)F)cc2n1C)-c1cccn2c(C(=O)c4cc(F)c(NC(=O)/C=C/CN[C@H]5CCOC5)c(F)c4)cc(c12)CCO3` [Example 118, (S,E)-N-(2,6-difluoro-4-(10-(methoxymethyl)-9-methyl-7-(trifluorometh-yl)-13,14-dihydro-9H-imidazo[4″,5″:5′,6′]benzo-[1′,2′:2,3]oxocino[4,5,6-hi]indolizine-2-carbonyl)-phenyl)-4-((tetrahydro-furan-3-yl)amino)but-2-enamide], for which the pIC50 in experiment [1] (setting [2]) was 7.90; in the experiment on MIA PaCa-2 cells (setting [3]) it was 8.38.

For `COCCNC/C=C/C(=O)Nc1c(F)cc(C(=O)c2cc3c4c(cccn24)-c2c(C(F)(F)F)cc4c(ncn4C)c2N(C)CC3)cc1F` [Example 126, (E)-N-(4-(9,12-dimethyl-7-(trifluoromethyl)-9,12,13,14-tetrahydro-imidazo[4″,5″:5′,6′]benzo-[1′,2′:2,3]azocino[4,5,6-hi]indolizine-2-carbonyl)-2,6-difluorophenyl)-4-((2-methoxyethyl)amino)but-2-enamide], the pIC50 in experiment [1] (setting [2]) is 7.75; in the experiment with MIA PaCa-2 cells (setting [3]), 7.84.

In the case of `CO[C@H]1CC[C@H](NC/C=C/C(=O)Nc2c(F)cc(C(=O)c3cn4c5c(cccc35)-c3c(C)cc5c(nc(C)n5C)c3OCC3(CC3)C4)cc2F)CC1` (single isomer, unassigned) [Example 21-2, (E)-N-(2,6-difluoro-4-(6′,8′,9′-trimethyl-8′H, 12′H,14′H-spiro[cyclopropane-1,13-imidazo[4″,5″:3′,4′]benzo[1′,2:8,9][1,5]oxazonino[7,6,5-hi]indole]-2′-carbonyl)phenyl)-4-(((1r,4t)-4-methoxycyclohexyl)amino)but-2-enamide], the figures for the negative-log IC50 (pIC50) (in experiment [1] (setting [4]); with MIA PaCa-2 cells (Table 3)) were 5.55 and 5.82, respectively.

Consider `CO[C@H]1CC[C@H](NC/C=C/C(=O)Nc2ccc(C(=O)c3cc4c5c(cccn35)-c3c(C(F)(F)F)cc5c(nc(C)n5C)c3OCC4)cc2)CC1` [Example 37, (E)-N-(4-(9,10-dimethyl-7-(trifluoromethyl)-13,14-dihydro-9H-imidazo[4″,5″:5′,6′]benzo[1′,2′:2,3]oxocino[4,5,6-hi]indolizine-2-carbonyl)phenyl)-4-(((1,4r)-4-methoxycyclohexyl)amino)but-2-enamide], for which the pIC50 is 7.40 in experiment [1] (setting [5]) and 7.55 in the experiment with MIA PaCa-2 cells (setting [6]).

`Cc1nc2c3c(c(C(F)(F)F)cc2n1C)-c1cccc2c(C(=O)c4cc(F)c(NC(=O)/C=C/CNC5(C)COC5)c(F)c4)cn(c12)CCN3C` (single isomer, unassigned) [Example 54]: the negative-log IC50 (pIC50) in experiment [1] (setting [7]) is 7.66; with MIA PaCa-2 cells (setting [3]), 8.27.
